Data taken from US20170198006A1, “PRMT5 INHIBITORS AND USES THEREOF” (Epizyme, Inc., priority 2014, published 2017).

Biological target: T1, PRMT5/MEP50 (Homo sapiens, UniProt O14744)
T1 construct: Flag-PRMT5; made in house; host or cells: Spodoptera frugiperda (SF9), baculovirus
Test: PRMT5 Biochemical Assay (PRMT5/MEP50 enzyme assay on histone H4 peptide substrate, 3H-SAM Flashplate)
Settings: not given
Description: S-adenosylmethionine (SAM), S-adenosylhomocysteine (SAH), bicine, KCl, Tween20, dimethylsulfoxide (DMSO), bovine skin gelatin (BSG), and Tris(2-carboxyethyl)phosphine hydrochloride solution (TCEP) were purchased from Sigma-Aldrich at the highest level of purity possible. ^3H-SAM was purchase from American Radiolabeled Chemicals with a specific activity of 80 Ci/mmol. 384-well streptavidin Flashplates were purchased from PerkinElmer.
Peptide representative of human histone H4 residues 1-15 was synthesized with a C-terminal linker-affinity tag motif and a C-terminal amide cap by 21st Century Biochemicals.
The amplified genes were sublconed into pENTR/D/TEV (Life Technologies) and subsequently transferred by Gateway™ attL×attR recombination to pDEST8 baculvirus expression vector (Life Technologies).
Protein over-expression was accomplished by infecting exponentially growing Spodoptera frugiperda (SF9) cell culture at 1.2×10^6 cell/ml with a 5000 fold dilution of BIIC stock. Infections were carried out at 27° C. for 72 hours, harvested by centrifugation, and stored at −80° C. for purification.
Flag-PRMT5/6His-MeP50 was eluted with 300 mM Imidazole in the same buffer.
General Procedure for PRMT5/MEP50 Enzyme Assays on Peptide Substrates.
The assays were all performed in a buffer consisting of 20 mM Bicine (pH=7.6), 1 mM TCEP, 0.005% BSG, and 0.002% Tween20, prepared on the day of use. […] DMSO (1 ul) was added to Columns 11, 12, 23, 24, rows A-H for the maximum signal control and 1 ul of SAH, a known product and inhibitor of PRMT5/MEP50, was added to columns 11, 12, 23, 24, rows I-P for the minimum signal control. A cocktail (40 ul) containing the PRMT5/MEP50 enzyme and the peptide was added by Multidrop Combi (Thermo-Fisher). The compounds were allowed to incubate with PRMT5/MEP50 for 30 min at 25 degrees Celsius, then a cocktail (10 ul) containing ^3H-SAM was added to initiate the reaction (final volume=51 ul). […] The assays were stopped by the addition of non-radioactive SAM (10 ul) to a final concentration of 600 uM, which dilutes the ^3H-SAM to a level where its incorporation into the peptide substrate is no longer detectable. 50 ul of the reaction in the 384-well polypropylene plate was then transferred to a 384-well Flashplate and the biotinylated peptides were allowed to bind to the streptavidin surface for at least 1 hour before being washed three times with 0.1% Tween20 in a Biotek ELx405 plate washer. The plates were then read in a PerkinElmer TopCount plate reader to measure the quantity of ^3H-labeled peptide bound to the Flashplate surface, measured as disintegrations per minute (dpm) or alternatively, referred to as counts per minute (cpm).
Where dpm=disintegrations per minute, cmpd=signal in assay well, and min and max are the respective minimum and maximum signal controls.
Where top and bottom are the normally allowed to float, but may be fixed at 100 or 0 respectively in a 3-parameter fit. The Hill Coefficient normally allowed to float but may also be fixed at 1 in a 3-parameter fit. Y is the % inhibition and X is the compound concentration.

T1 sequence (O14744 with tags, fused parts or gaps): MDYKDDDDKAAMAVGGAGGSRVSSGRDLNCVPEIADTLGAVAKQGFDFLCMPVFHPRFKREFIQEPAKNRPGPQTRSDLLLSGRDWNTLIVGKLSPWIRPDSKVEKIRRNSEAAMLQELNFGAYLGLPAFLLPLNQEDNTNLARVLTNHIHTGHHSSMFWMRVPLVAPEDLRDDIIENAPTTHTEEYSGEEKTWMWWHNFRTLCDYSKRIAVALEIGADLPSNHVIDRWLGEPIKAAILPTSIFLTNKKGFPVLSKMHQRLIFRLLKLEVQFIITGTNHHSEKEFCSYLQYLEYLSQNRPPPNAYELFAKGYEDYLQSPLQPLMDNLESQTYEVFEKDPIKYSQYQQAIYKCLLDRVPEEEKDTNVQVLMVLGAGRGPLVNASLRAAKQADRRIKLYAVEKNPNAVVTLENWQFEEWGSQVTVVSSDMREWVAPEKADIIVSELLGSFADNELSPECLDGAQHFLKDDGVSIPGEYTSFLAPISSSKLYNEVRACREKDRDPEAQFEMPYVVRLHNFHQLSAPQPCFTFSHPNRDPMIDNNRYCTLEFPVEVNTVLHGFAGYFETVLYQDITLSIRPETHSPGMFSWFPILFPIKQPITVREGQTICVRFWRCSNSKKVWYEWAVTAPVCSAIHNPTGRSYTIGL
T1 sequence (Q9BQA1 with tags, fused parts or gaps partner limits assumed): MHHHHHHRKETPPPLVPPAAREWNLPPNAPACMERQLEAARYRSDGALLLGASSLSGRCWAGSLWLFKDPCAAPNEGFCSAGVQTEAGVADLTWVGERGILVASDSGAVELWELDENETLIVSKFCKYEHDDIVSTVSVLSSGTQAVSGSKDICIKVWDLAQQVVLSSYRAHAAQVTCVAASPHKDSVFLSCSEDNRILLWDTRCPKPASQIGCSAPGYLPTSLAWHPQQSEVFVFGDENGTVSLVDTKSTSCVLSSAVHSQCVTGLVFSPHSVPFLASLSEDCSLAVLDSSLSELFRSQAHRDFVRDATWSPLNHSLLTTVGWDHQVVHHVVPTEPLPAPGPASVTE

Row | SMILES | IC50
1 | O=C(CC1NC(N2CCN(Cc3ccccc3)CC2)=NC1=O)Nc1ccccc1 (stereo not shown) [Compound 6-14] | 10000 to 50000 nM

Same assay, conditions: PRMT5 biochemical assay; read-out: Biochemical IC50

Row | IC50 | SMILES
2 | 101 to 1000 nM | CN(CCNCCc1ccccc1)C[C@H]1O[C@@H](n2cnc3c(N)ncnc32)[C@H](O)[C@@H]1O [Compound 79-1]
3 | 101 to 1000 nM | CN(CCc1ccc(Cl)cc1)CCN(C)C[C@H]1O[C@@H](n2cnc3c(N)ncnc32)[C@H](O)[C@@H]1O [Compound 52-1]
4 | < 100 nM | CN(CCNCCOc1ccccc1)C[C@H]1O[C@@H](n2cnc3c(N)ncnc32)[C@H](O)[C@@H]1O [Compound 63-1]
5 | 101 to 1000 nM | CN(CCNC1CCNCC1)C[C@H]1O[C@@H](n2cnc3c(N)ncnc32)[C@H](O)[C@@H]1O [Compound 53-1]
6 | 1000 to 10000 nM | Cc1ccc(NC(=O)CC2NC(N3CCN(c4ccccc4)CC3)=NC2=O)cc1 (stereo not shown) [Compound 67-14]
7 | < 100 nM | CN(CCNCCc1ccc(Cl)cc1)C[C@H]1O[C@@H](n2cnc3c(N)ncnc32)[C@H](O)[C@@H]1O [Compound 61-1]
8 | 101 to 1000 nM | O=C(CC1NC(N2CCN(c3ccccc3)CC2)=NC1=O)c1ccccc1Br (stereo not shown) [Compound 75-14]
9 | < 100 nM | CN(CCNC1CCCCC1)C[C@H]1O[C@@H](n2cnc3c(N)ncnc32)[C@H](O)[C@@H]1O [Compound 54-1]
10 | 101 to 1000 nM | O=C(CC1NC(N2CCN(c3ccccc3)CC2)=NC1=O)Nc1ccc(Cl)cc1Cl (stereo not shown) [Compound 58-14]
11 | < 100 nM | Nc1ncnc2c1ncn2[C@@H]1O[C@H](CN(CCCC(=O)O)CCNCCc2ccc(Cl)cc2)[C@@H](O)[C@H]1O [Compound 80-1]
12 | 101 to 1000 nM | CC1CCCCN1CCCNCCN(C)C[C@H]1O[C@@H](n2cnc3c(N)ncnc32)[C@H](O)[C@@H]1O (stereo partly shown) [Compound 66-1]
13 | 101 to 1000 nM | CCSC[C@H]1O[C@@H](n2cnc3c(N)ncnc32)[C@H](O)[C@@H]1O [Compound 94-1]
14 | 101 to 1000 nM | O=C(CC1NC(N2CCC(O)(c3ccccc3)CC2)=NC1=O)Nc1ccc(Cl)cc1 (stereo not shown) [Compound 73-14]
15 | < 100 nM | Nc1ncnc2c1ncn2[C@@H]1O[C@H](CSCC[C@H](N)CO)[C@@H](O)[C@H]1O [Compound 91-1, (2S, 3S, 4R, 5R)-2-((((S)-3-amino-4-hydroxybutyl)thio)methyl)-5-(6-amino-9H-purin-9-yl)tetrahydrofuran-3,4-diol]
16 | 10000 to 50000 nM | O=C(CC1NC(N2CCN(c3ccccc3)CC2)=NC1=O)Nc1ccccc1Br (stereo not shown) [Compound 68-14]
17 | 101 to 1000 nM | COc1ccccc1C(=O)CC1NC(N2CCC(O)(c3ccccc3)CC2)=NC1=O (stereo not shown) [Compound 55-14]
18 | 101 to 1000 nM | CN(CCNCCOc1cccc(F)c1)C[C@H]1O[C@@H](n2cnc3c(N)ncnc32)[C@H](O)[C@@H]1O [Compound 73-1]
19 | 10000 to 50000 nM | O=C(CC1NC(N2CCN(c3ccccc3)CC2)=NC1=O)Nc1cccc(Cl)c1Cl (stereo not shown) [Compound 51-14]
20 | 10000 to 50000 nM | COc1ccccc1NC(=O)CC1NC(N2CCN(c3ccccc3)CC2)=NC1=O (stereo not shown) [Compound 60-14]
21 | 101 to 1000 nM | Cc1ccccc1C(=O)CC1NC(N2CCN(c3ccccc3)CC2)=NC1=O (stereo not shown) [Compound 69-14]
22 | 101 to 1000 nM | CC(=O)N(CCNCCc1ccc(Cl)cc1)C[C@H]1O[C@@H](n2cnc3c(N)ncnc32)[C@H](O)[C@@H]1O [Compound 76-1]
23 | 1000 to 10000 nM | Cc1cc(Cl)ccc1NC(=O)CC1NC(N2CCN(c3ccccc3)CC2)=NC1=O (stereo not shown) [Compound 66-14]

More lines, now with the values behind:

Row | SMILES | IC50
24 | CC(CN)N(C)C[C@H]1O[C@@H](n2cnc3c(N)ncnc32)[C@H](O)[C@@H]1O (stereo partly shown) [Compound 28-1] | 101 to 1000 nM
25 | CC1CCN(CCN(C)C[C@H]2O[C@@H](n3cnc4c(N)ncnc43)[C@H](O)[C@@H]2O)CC1 [Compound 44-1] | 101 to 1000 nM
26 | O=C(CC1NC(N2CCN(c3ccccc3)CC2)=NC1=O)Nc1ccccc1Cl (stereo not shown) [Compound 49-14] | 10000 to 50000 nM
27 | Cc1ccc(NC(=O)CC2NC(N3CCc4ccccc4C3)=NC2=O)cc1 (stereo not shown) [Compound 23-14] | 1000 to 10000 nM
28 | NCc1nc(CCNC(=O)c2ccccc2)cn1Cc1ccccc1 [Compound 2-2, N-(2-(2-(aminomethyl)-1-benzyl-1H-imidazol-4-yl)ethyl)benzamide] | 101 to 1000 nM
29 | COc1ccc(N2CCN(C3=NC(=O)C(CC(=O)Nc4ccc(C(C)=O)cc4)N3)CC2)cc1 (stereo not shown) [Compound 21-14] | 1000 to 10000 nM
30 | CC(C)N(CCN)C[C@H]1O[C@@H](n2cnc3c(N)ncnc32)[C@H](O)[C@@H]1O [Compound 26-1] | 101 to 1000 nM
31 | CCOC(=O)c1ccc(NC(=O)CC2NC(N3CCN(c4ccccn4)CC3)=NC2=O)cc1 (stereo not shown) [Compound 17-14] | 1000 to 10000 nM
32 | CC(C)N(CCCN)C[C@H]1O[C@@H](n2cnc3c(N)ncnc32)[C@H](O)[C@@H]1O [Compound 25-1] | 101 to 1000 nM
33 | Cc1ccc(C(=O)CC2NC(N(C)CCc3ccccc3)=NC2=O)cc1 (stereo not shown) [Compound 41-14] | 1000 to 10000 nM
34 | COc1ccccc1C(=O)CC1NC(N2CCc3ccccc3C2)=NC1=O (stereo not shown) [Compound 5-6] | < 100 nM
35 | NCCCN(CC[C@H](N)C(=O)O)C[C@H]1O[C@@H](n2cnc3c(N)ncnc32)[C@H](O)[C@@H]1O [Compound 23-1] | < 100 nM
36 | NCCCCN(CC[C@H](N)C(=O)O)C[C@H]1O[C@@H](n2cnc3c(N)ncnc32)[C@H](O)[C@@H]1O [Compound 24-1] | < 100 nM
37 | Cc1ccc(NC(=O)CC2NC(N3CCN(Cc4ccccc4)CC3)=NC2=O)cc1 (stereo not shown) [Compound 9-14] | 1000 to 10000 nM
38 | CCOC(=O)c1ccc(NC(=O)CC2NC(N3CCN(C)CC3)=NC2=O)cc1 (stereo not shown) [Compound 24-14] | 10000 to 50000 nM
39 | CN(CCNCc1ccc(Cl)cc1Cl)C[C@H]1O[C@@H](n2cnc3c(N)ncnc32)[C@H](O)[C@@H]1O [Compound 7-1] | 101 to 1000 nM
40 | Cc1ccc(C(C)NCCN(C)C[C@H]2O[C@@H](n3cnc4c(N)ncnc43)[C@H](O)[C@@H]2O)cc1 (stereo partly shown) [Compound 3-1] | 101 to 1000 nM
41 | CC(N)CCN(C)C[C@H]1O[C@@H](n2cnc3c(N)ncnc32)[C@H](O)[C@@H]1O (stereo partly shown) [Compound 22-1] | 101 to 1000 nM
42 | NCCNC[C@H]1O[C@@H](n2cnc3c(N)ncnc32)[C@H](O)[C@@H]1O [Compound 29-1] | 101 to 1000 nM
43 | COc1ccc(NC(=O)CC2NC(N3CCN(c4ccccn4)CC3)=NC2=O)cc1 (stereo not shown) [Compound 7-14] | 1000 to 10000 nM
44 | CC(=O)c1ccc(NC(=O)CC2NC(N3CCN(C)CC3)=NC2=O)cc1 (stereo not shown) [Compound 26-14] | 10000 to 50000 nM
45 | CN(CCC[C@@H](N)C(=O)O)C[C@H]1O[C@@H](n2cnc3c(N)ncnc32)[C@H](O)[C@@H]1O [Compound 32-1] | 101 to 1000 nM
46 | Cc1ccc(C(=O)CC2NC(N3CCN(Cc4ccc(F)cc4)CC3)=NC2=O)cc1 (stereo not shown) [Compound 35-14] | 1000 to 10000 nM
47 | CN(CCN(CC[C@H](N)C(=O)OCc1ccccc1)C[C@H]1O[C@@H](n2cnc3c(N)ncnc32)[C@H](O)[C@@H]1O)C(=O)OCc1ccccc1 [Compound 49-1] | < 100 nM
48 | COc1cccc(CN(C)CCN(C)C[C@H]2O[C@@H](n3cnc4c(N)ncnc43)[C@H](O)[C@@H]2O)c1 [Compound 20-1] | 101 to 1000 nM
49 | O=C(CC1NC(N2CCN(c3ccccc3)CC2)=NC1=O)Nc1ccccc1 (stereo not shown) [Compound 18-14] | 1000 to 10000 nM
50 | NCCCN(CCN)C[C@H]1O[C@@H](n2cnc3c(N)ncnc32)[C@H](O)[C@@H]1O [Compound 30-1] | < 100 nM
51 | N#Cc1ccc(C(=O)CC2NC(N3CCN(c4ccccc4)CC3)=NC2=O)cc1 (stereo not shown) [Compound 40-14] | 1000 to 10000 nM
52 | CCOc1ccc(NC(=O)CC2NC(N3CCN(c4ccccc4F)CC3)=NC2=O)cc1 (stereo not shown) [Compound 15-14] | 1000 to 10000 nM
